The test system of one assay is BALB/c mice. The assay is described as follows: LPS-induced cytokine production in vivo (murine model of LPS-induced inflammation). The settings on record: Mus musculus; 50 mg/kg oral before LPS; 2 hours, first experiment; read-out: inhibition of MIP-1α production. Here is the method: The experiments were performed on female BALB/c mice (6-7 week old; Charles River Laboratories, Inc. MA). […] The control mice received the vehicle (20% cyclodextran) only. 20 μg LPS (Sigma), diluted in PBS, was injected into each mouse intraperitoneally. Blood samples were collected either by eye bleeding or cardiac puncture at 1 and 2 hours after LPS injection in one experiment, and at 2 and 3 hours after LPS injection in a second experiment. Plasma samples were collected by centrifugation, and stored at ≦−20° C. before being tested for cytokines using individual ELISA kits or Luminex analysis (see below).
(§1) Human IL-6, IL18, IL1β, MCP-1, MMP-9, and mouse IL-6, IL18, TNFα, MCP-1 and IL-1β were measured with ELISA kits (R&D Systems) according to the manufacturer's instructions.
Samples were tested for cytokines using the Bio-plex cytokine assay kit (Bio-Rad Laboratories, Inc.) according to the manufacturer's instructions. Briefly, 50 μL anti-cytokine antibody conjugated beads were added to wells of a filter plate pre-equilibrated with assay buffer. The beads were washed, then 50 μL of undiluted cell culture supernatant or 4-fold diluted plasma samples were added and incubated for 2 hours. Biotinylated anti-cytokine antibody (25 μL) was added to each well and the plate was incubated with shaking for 1.5 hours. Streptavidin-PE (50 μL) was added to each well and the plate was incubated with shaking for 45 min. between incubations, wells were washed 3 times with 100 μL wash buffer and unbound analytes were filtered using a vacuum manifold. Following the last wash step, 125 μL of assay buffer was added to each well and the plate was placed on a shaker for 10 min. The plate was read on a Luminex^100 instrument (Luminex Corporation, Austin, Tex.) according to the manufacturer's instructions. The concentration of cytokine was determined from a standard curve assayed at the same time.

The next assay has as its target farnesyltransferase (Homo sapiens, UniProt P49354+P49356). To be noted: cited from earlier work.
Another assay has as its system human PBMC. The assay is described as follows: LPS-induced cytokine production in human PBMC. The class given is cell-based. The settings on record: 2 or 5 μM, LPS 10 ng/ml, 10% FBS. Here is the method:
as §1
Heparinized human blood (25 ml) from a healthy donor was overlaid into a 50 ml conical tubes containing 20 ml Ficoll-Paque, and centrifuged for 20 min at 2000 rpm at room temperature and then allowed to stop without using the brake on the centrifuge. The upper layer was aspirated, leaving the mononuclear cell layer undisturbed at the interface. Cells were carefully transferred the to a new […] conical tube. The conical tube was filled with PBS, mixed and centrifuged at 1500 rpm for 15 minutes at room temperature. The supernatant was carefully and completely removed. The cell pellet was resupended in 50 ml of PBS and centrifuged at 1500 rpm for 5 minutes. This wash step was repeated once more. The cells were counted and resuspended cells at 1.7×10^6/ml in low-endotoxin RPMI1640/10% FBS.
Human PBMC (180 μl at 1.7×10^6/ml) were pipetted into each well of a 96-well plate. […] Cells were incubated at 37° C., under 5% CO2 for 1 hour, then 10 μl LPS (diluted in medium) were added per well to reach a final concentration of 10 ng/ml. Cells were cultured at 37° C., under 5% CO2. Supernatants were collected at 16 hours, 24 hours and 40 hours of LPS treatment, and IL-6 secretion was quantified.

The subject of a further assay is NF-κB. To be noted: cited from earlier work.

We go through three molecules from patent US20120196766A1, “Therapeutic Use of Farnesyltransferase Inhibitors and Methods of Monitoring the Efficacy Thereof” (priority 2004, published 2012).

By inhibition is commonly meant the share of the control response that was lost under treatment. Turning to `CCC(C)(C)C(=O)O[C@H]1C[C@@H](C)C=C2C=C[C@H](C)[C@H](CC[C@@H]3C[C@@H](O)CC(=O)O3)[C@H]21` [simvastatin], in the assay on BALB/c mice, the inhibition at 50 mg/kg was around 50%. Consider `Cn1cncc1C(N)(c1ccc(Cl)cc1)c1ccc2c(c1)c(-c1cccc(Cl)c1)cc(=O)n2C` (single isomer, unassigned) [less active enantiomer], for which, on farnesyltransferase, the “fold less active than tipifarnib (R115777) for inhibition of farnesyltransferase” value is on record as “about 100 fold”. The “LPS-induced IL-6 production” value with human PBMC is listed as “No difference in production”.

Regarding `NC(=O)N1CCC(CC(=O)N2CCC([C@H]3c4ncc(Br)cc4CCc4cc(Cl)cc(Br)c43)CC2)CC1` [SCH 66336, (+)-(R)-4-[2-[4-(3,10-dibromo-8-chloro-5,6-dihydro-11H-benzo[5,6]cyclohepta[1,2-b]pyridin-11-yl)piperidin-1-yl]-2-oxoethyl]piperidine-1-carboxamide], in the assay on NF-κB, the “TNF-α induced NF-κB activity” value was “inhibited”.
